Source: US6894075B2, “4′-demethyl-4′-O-substituted-1-deoxypodophyllotoxin derivative and geometric isomer thereof, process for the preparation thereof and anti-cancer composition comprising the same” (priority 2000, dated 2005)

What was measured:
[1] = tested on: SK-MEL-2 cell; experiment: Cytotoxicity test (SRB method) for SK-MEL-2 cells; assay type: cell-based, human; settings: SK-MEL-2, SRB, 48 hours incubation
Description: (§1) Human lung carcinomas A549 and […] were used for determining cytotoxicity of the compounds of the present invention according to the Sulfrhodamine-B (SRB) method which was developed by NCI in 1989 in order to determine in vitro anticancer activity of drugs.
(§2) Cells to be used in the experiment were separated from a surface using 0.5% Trypsin-EDTA solution and suspended in a density of 5×10^4 cell/ml therein. The cell suspension was introduced into a 96-well plate in an amount of 180/well and incubated for 24 hours in a 5% CO2 incubator of 37° C. Samples were dissolved in dimethylsulfoxide and then diluted by water distilled in advance for three times just before the experiment. Forty-one (41) samples were prepared into 4 types of final concentrations, i.e., 0.1, 0.03, 0.01 and 0.003 mg per ml of the medium. The diluted sample solutions were added to the 96-well plate in the amount of 20 μl/well and incubated for 48 hours in a CO2 incubator of 37° C. At the time of adding the samples, Tz (Time zero) plate was taken. The medium was removed from the Tz plate and each of the plates after incubation were completed. Ten (10)% […] (TCA) was added in the amount of […], and allowed to stand for 1 hour at 4° C. to fix the cells on the bottom surface of the plate. After the cells were fixed, the plate was washed five to six times with water to completely remove the remaining TCA solution and then dried at room temperature to completely remove the moisture. To the fully dried plate was introduced a dye solution in the amount of […] in which 0.4% SRB was dissolved in 1% acetic acid solution. […] After the dyeing process, the plate was dried again at room temperature. 100 ml of 10 mM Tris solution was added thereto in order to dissolve the dye, and then O.D. (optical density) was determined by microplate reader at 520 nm.
(§3) ED50 values for cancer cells were calculated as follows. The amount of SRB protein was analyzed at the time when incubation started by the addition of the sample. This amount was named time zero (Tz). The O.D. value obtained from a group which was not treated by the sample was named Control group (C) and the O.D. value obtained from a group which was treated by the sample was named Test group (T).
(§4) The degree of cytotoxicity of the compounds was calculated from Tz, C and T values according to the following equation.
(§5) That is, in the case of Tz≧T, the degree was calculated by
(§6) (T−Tz)/(C−Tz)×100(%), and
(§7) • in the case of Tz<T, the degree was calculated by […].
(§8) From the values thus obtained, ED50 value which is defined as the concentration at which growth of the cancer cell is inhibited by 50% was calculated using the regression function of Excel program.

[2] = tested on: A549 cell; experiment: Cytotoxicity test (SRB method) for A549 cells; assay type: cell-based, human; settings: A549, SRB, 48 hours incubation, Table 2
Description: as §1, §2, §3, §4, §5, §6, §7, §8

| Structure (SMILES) | ED50(mg/mL) for SK-MEL-2 [1] [mg/mL] | ED50(mg/mL) for A549 [2] [mg/mL] |
| --- | --- | --- |
| CCCCC/C=C/C/C=C/CCCCCCCC(=O)Oc1c(OC)cc(C2c3cc4c(cc3CC3COC(=O)C32)OCO4)cc1OC (stereo not drawn) [Compound 1c-21, 4′-demethyl-4′-O-(trans-9′,12′-octadecadienoyl)-1-deoxypodophyllo-toxin] | 0.110 | 0.259 |
| CC/C=C\C/C=C\C/C=C\CCCCCCCC(=O)Oc1c(OC)cc(C2c3cc4c(cc3CC3COC(=O)C32)OCO4)cc1OC (stereo not drawn) [Compound 1c-22, 4′-demethyl-4′-O-(cis-9′,12′,15′-octadecatrienoyl)-1-deoxypodophyllotoxin] | 0.048 | 0.084 |
| COc1cc(C2c3cc4c(cc3CC3COC(=O)C32)OCO4)cc(OC)c1OC(=O)CCCCCCC(=O)O (stereo not shown) [Compound 1c-34, 4′-demethyl-4′-O-(7′-carboxy-heptanoyl)-1-deoxypodophyllotoxin] | 0.066 | 0.175 |
| CCCCCCC(=O)Oc1c(OC)cc(C2c3cc4c(cc3CC3COC(=O)C32)OCO4)cc1OC (stereo not shown) [Compound 1c-7, 4′-demethyl-4′-O-heptanoyl-1-deoxypodophyllotoxin] | 0.078 | 0.013 |
| CCCCC/C=C\C/C=C\CCCCCCCCCC(=O)Oc1c(OC)cc(C2c3cc4c(cc3CC3COC(=O)C32)OCO4)cc1OC (stereo not drawn) [Compound 1c-27, 4′-demethyl-4′-O-(cis-11′,14′-eicosadienoyl)-1-deoxypodophyllotoxin] | 0.347 | 0.870 |
| CCCCCCCCCCCCCCCCCCCCCC(=O)Oc1c(OC)cc(C2c3cc4c(cc3CC3COC(=O)C32)OCO4)cc1OC (stereo not shown) [Compound 1c-29, 4′-demethyl-4′-O-docosanoyl-1-deoxypodophyllotoxin] | >5 | >5 |
| CCCCC/C=C\C/C=C\C/C=C\C/C=C\CCCC(=O)Oc1c(OC)cc(C2c3cc4c(cc3CC3COC(=O)C32)OCO4)cc1OC (stereo not drawn) [Compound 1c-28, 4′-demethyl-4′-O-(cis-5′,8′,11′,14′-eicosatetraenoyl)-1-deoxypodophyllotoxin] | 0.184 | 0.910 |
| CCCCCCCCCCCC(=O)Oc1c(OC)cc(C2c3cc4c(cc3CC3COC(=O)C32)OCO4)cc1OC (stereo not shown) [Compound 1c-11, 4′-demethyl-4′-O-dodecanoyl-1-deoxypodophyllotoxin] | 0.025 | 0.030 |
| CCCCCCCC(=O)Oc1c(OC)cc(C2c3cc4c(cc3CC3COC(=O)C32)OCO4)cc1OC (stereo not shown) [Compound 1c-8, 4′-demethyl-4′-O-octanoyl-1-deoxypodophyllotoxin] | 0.030 | 0.009 |
| CC/C=C\C/C=C\C/C=C\C/C=C\C/C=C\C/C=C\CCC(=O)Oc1c(OC)cc(C2c3cc4c(cc3CC3COC(=O)C32)OCO4)cc1OC (stereo not drawn) [Compound 1c-31, 4′-demethyl-4′-O-(cis-4′,7′,10′,13′,16′,19′-docohexaenoyl)-1-deoxypodophyllotoxin] | 0.035 | 0.119 |
| CCCCCC/C=C\CCCCCCCC(=O)Oc1c(OC)cc(C2c3cc4c(cc3CC3COC(=O)C32)OCO4)cc1OC (stereo not drawn) [Compound 1c-14, 4′-demethyl-4′-O-(cis-9′-hexadecenoyl)-1-deoxypodophyllo-toxin] | 0.065 | 0.733 |
| COc1cc(C2c3cc4c(cc3CC3COC(=O)C32)OCO4)cc(OC)c1OC(C)=O (stereo not shown) [Compound 1c-3, 4′-demethyl-4′-O-acetyl-1-deoxypodophyllotoxin] | 0.006 | 0.003 |
| CCCCCC/C=C\CCCCCCCCCC(=O)Oc1c(OC)cc(C2c3cc4c(cc3CC3COC(=O)C32)OCO4)cc1OC (stereo not drawn) [Compound 1c-18, 4′-demethyl-4′-O-(cis-11′-octadecenoyl)-1-deoxypodophyllo-toxin] | 0.057 | 0.335 |
| CCCCCCCCCC(=O)Oc1c(OC)cc(C2c3cc4c(cc3CC3COC(=O)C32)OCO4)cc1OC (stereo not shown) [Compound 1c-9, 4′-demethyl-4′-O-decanoyl-1-deoxypodophyllotoxin] | 0.004 | 0.027 |
| CCCCC/C=C\C/C=C\C/C=C\CCCCC(=O)Oc1c(OC)cc(C2c3cc4c(cc3CC3COC(=O)C32)OCO4)cc1OC (stereo not drawn) [Compound 1c-23, 4′-demethyl-4′-O-(cis-6′,9′,12′-octadecatrienoyl)-1-deoxypodophyllotoxin] | 0.041 | 0.085 |
| CCCCCC/C=C/CCCCCCCCCC(=O)Oc1c(OC)cc(C2c3cc4c(cc3CC3COC(=O)C32)OCO4)cc1OC (stereo not drawn) [Compound 1c-19, 4′-demethyl-4′-O-(trans-11′-octadecenoyl)-1-deoxypodophyllo-toxin] | 0.253 | 1.010 |
| COc1cc(C2c3cc4c(cc3CC3COC(=O)C32)OCO4)cc(OC)c1OC(=O)CC(C)C (stereo not shown) [Compound 1c-6, 4′-demethyl-4′-O-(3′-methylbutanoyl)-1-deoxypodophyllotoxin] | 0.089 | 0.006 |
| CCCCCCCCCCCCCCCCCCCC(=O)Oc1c(OC)cc(C2c3cc4c(cc3CC3COC(=O)C32)OCO4)cc1OC (stereo not shown) [Compound 1c-24, 4′-demethyl-4′-O-eicosanoyl-1-deoxypodophyllotoxin] | >5 | >5 |
| CCCCCCCCCCCCCCCCCC(=O)Oc1c(OC)cc(C2c3cc4c(cc3CC3COC(=O)C32)OCO4)cc1OC (stereo not shown) [Compound 1c-15, 4′-demethyl-4′-O-octadecanoyl-1-deoxypodophyllotoxin] | >5 | 2.670 |
| CCCCCCCC/C=C\CCCCCCCC(=O)Oc1c(OC)cc(C2c3cc4c(cc3CC3COC(=O)C32)OCO4)cc1OC (stereo not drawn) [Compound 1c-16, 4′-demethyl-4′-O-(cis-9′-octadecenoyl)-1-deoxypodophyllo-toxin] | 0.159 | 0.179 |
| CCCCCCCC/C=C\CCCCCCCCCCCC(=O)Oc1c(OC)cc(C2c3cc4c(cc3CC3COC(=O)C32)OCO4)cc1OC (stereo not drawn) [Compound 1c-30, 4′-demethyl-4′-O-(cis-13′-docosenoyl)-1-deoxypodophyllotoxin] | 0.561 | 2.710 |
| CCCCCCCC/C=C/CCCCCCCCCC(=O)Oc1c(OC)cc(C2c3cc4c(cc3CC3COC(=O)C32)OCO4)cc1OC (stereo not drawn) [Compound 1c-26, 4′-demethyl-4′-O-(trans-11′-eicosenoyl)-1-deoxypodophyllotoxin] | 1.130 | 1.660 |
| COc1cc(C2c3cc4c(cc3CC3COC(=O)C32)OCO4)cc(OC)c1OC(=O)c1ccccc1 (stereo not shown) [Compound 1c-10, 4′-demethyl-4′-O-benzoyl-1-deoxypodophyllotoxin] | 0.066 | 0.095 |
| CCCCC/C=C\C/C=C\CCCCCCCC(=O)Oc1c(OC)cc(C2c3cc4c(cc3CC3COC(=O)C32)OCO4)cc1OC (stereo not drawn) [Compound 1c-20, 4′-demethyl-4′-O-(cis-9′,12′-octadecadienoyl)-1-deoxypodophyllo-toxin] | 0.030 | 0.090 |
| CCCCCCCC/C=C/CCCCCCCC(=O)Oc1c(OC)cc(C2c3cc4c(cc3CC3COC(=O)C32)OCO4)cc1OC (stereo not drawn) [Compound 1c-17, 4′-demethyl-4′-O-(trans-9′-octadecenoyl)-1-deoxypodophyllo-toxin] | 0.550 | 0.367 |
| COc1cc(C2c3cc4c(cc3CC3COC(=O)C32)OCO4)cc(OC)c1OC(=O)CCCCCCCCCCC(=O)O (stereo not shown) [Compound 1c-36, 4′-demethyl-4′-O-(11′-carboxy-undecanoyl)-1-deoxypodophyllotoxin] | 0.068 | 0.046 |
